Patent US20060090219A1, “Methods for producing plants with improved growth under nitrogen-limited conditions” (priority 2003, published 2006)

Tests used:
[1] = test system: potatoes (May Queen cultivar); assay: Yield survey of potatoes after foliar application of proline under low-nitrogen conditions; format: in vivo, potato; details: for Total tuber weight (per plant) / Total number of tubers (per plant): foliar spray 6 times at one-week intervals, harvest 3 months after planting, n = 6; for Total tuber weight (per plant): low-nitrogen soil (total nitrogen 0.6 g); for Total number of tubers (per plant): low-nitrogen soil; for Ratio of total number of tubers to spreader group / Ratio of total tuber weight to spreader group: same test, spreader group = 1.00
Protocol: The effects of foliar application of a proline solution on growth and yield were investigating using potatoes (May Queen cultivar). Potato tubers were placed in No. 7 pots containing 1.5 kg of Power Soil (Kureha Chemical). Under normal cultivation conditions, about 5 g of nitrogen fertilizer is used as base fertilizer; while in this cultivation test, cultivation was under low-nitrogen conditions.
(§1) Three foliar application groups were prepared—a spreader group (Approach B1, Kao), a urea group (spreader+0.87 mM urea), and a proline group (spreader+1.75 mM proline), and about 20 ml per plant was sprayed once a week beginning about a month after planting (immediately before flowering). The leaves were sprayed 6 times (6 weeks), and harvested 3 months after planting.
Aqueous solutions of a spreader, urea and proline were applied 6 times at one-week intervals to the leaf surfaces of potato plants 1 month after planting. These were cultivated for 3 months after planting, with 6 pots in each group and one stalk per plant. The tubers were harvested from each pot, and the tuber weight and number of tubers per pot was measured.

potato leaf tissue = details: 24 hours after foliar application, compared with spreader and urea groups, n=6
Protocol: as §1

## O=C(O)[C@@H]1CCCN1 [Proline, proline]
[1]
  Total tuber weight (per plant): 158.4 ± 18.0 g
  Total number of tubers (per plant): 8.2 ± 1.0
  Ratio of total number of tubers to spreader group: 1.00
  Ratio of total tuber weight to spreader group: 1.10
[1]; listed as proline
  Total tuber weight (per plant): 158.4 g
  Total number of tubers (per plant): 8.2
  Ratio of total tuber weight to spreader group: 1.1
Potato leaf tissue
  2-OG content in leaf tissue: significantly greater

## NC(N)=O [Urea, urea, reference compound]
[1]
  Total tuber weight (per plant): 140.1 ± 10.6 g
  Total number of tubers (per plant): 6.8 ± 1.6
  Ratio of total number of tubers to spreader group: 0.83
  Ratio of total tuber weight to spreader group: 0.96
[1]; listed as urea
  Total tuber weight (per plant): 140.1 g
  Total number of tubers (per plant): 6.8
